PubChem BioAssay (NCI)
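Step 1: Grow cells in 96-well plates. Step 2: Expose to compound for 48 hours at 5 concentrations. Step 3: Interpolate endpoints linearly; if unreached, use highest concentration. TGI marks complete inhibition of growth.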

Assays:
Assay in all cases: NCI tumour cell line growth inhibition, 48 h
[1] = tested on: HOP-92 NSCLC
[2] = tested on: HCT-15 colon
[3] = tested on: SF-268 CNS
[4] = tested on: CAKI-1 renal
[5] = tested on: DU-145 prostate
[6] = tested on: OVCAR-8 ovarian
[7] = tested on: HCT-116 colon
[8] = tested on: SNB-19 CNS
[9] = tested on: PC-3 prostate
[10] = tested on: IGROV1 ovarian
[11] = tested on: LOX IMVI melanoma
[12] = tested on: SK-MEL-28 melanoma
[13] = tested on: UO-31 renal
[14] = tested on: SF-295 CNS
[15] = tested on: TK-10 renal
[16] = tested on: U251 CNS
[17] = tested on: HS 578T breast
[18] = tested on: 786-0 renal
[19] = tested on: HL-60(TB) leukemia
[20] = tested on: SW-620 colon
[21] = tested on: HT29 colon
[22] = tested on: HOP-62 NSCLC
[23] = tested on: NCI-H522 lung
[24] = tested on: NCI-H460 lung
[25] = tested on: M14 melanoma
[26] = tested on: RPMI-8226 leukemia
[27] = tested on: A498 renal
[28] = tested on: MDA-MB-435
[29] = tested on: EKVX NSCLC
[30] = tested on: MDA-MB-231 breast
[31] = tested on: SR leukemia
[32] = tested on: SK-MEL-5 melanoma
[33] = tested on: SF-539 CNS
[34] = tested on: ACHN renal
[35] = tested on: BT-549 breast
[36] = tested on: UACC-62 melanoma
[37] = tested on: OVCAR-3 ovarian
[38] = tested on: COLO 205 colon
[39] = tested on: HCC-2998 colon
[40] = tested on: NCI-H226 lung
[41] = tested on: SK-MEL-2 melanoma
[42] = tested on: MALME-3M melanoma
[43] = tested on: MCF7 breast
[44] = tested on: NCI-H23 lung
[45] = tested on: MDA-N
[46] = tested on: OVCAR-5 ovarian
[47] = tested on: K-562 leukemia
[48] = tested on: UACC-257 melanoma
[49] = tested on: NCI/ADR-RES ovarian
[50] = tested on: A549 NSCLC
[51] = tested on: SK-OV-3 ovarian
[52] = tested on: CCRF-CEM leukemia
[53] = tested on: RXF 393 renal
[54] = tested on: SN12C renal
[55] = tested on: KM12 colon
[56] = tested on: OVCAR-4 ovarian
[57] = tested on: MOLT-4 leukemia

## CC(C)(C)C1CCC2c3c([nH]c4ccccc34)C3C(=O)N(c4ccc(C(=O)O)cc4)C(=O)C3C2C1 (configuration not stated)
[1]
  TGI: 25.7 µM
[2]
  TGI: 25 µM
[3]
  TGI: 28.4 µM
[4]
  TGI: 31 µM
[5]
  TGI: 34.7 µM
[6]
  TGI: 26.6 µM
[7]
  TGI: 29.7 µM
[8]
  TGI: 34.6 µM
[9]
  TGI: 26.3 µM
[10]
  TGI: 40.1 µM
[11]
  TGI: 28.8 µM
[12]
  TGI: 30.3 µM
[13]
  TGI: 30.4 µM
[14]
  TGI: 23.4 µM
[15]
  TGI: 31.3 µM
[16]
  TGI: 26.2 µM
[17]
  TGI: 39 µM
[18]
  TGI: 29.1 µM
[19]
  TGI: 15.4 µM
[20]
  TGI: 26.5 µM
[21]
  TGI: 28.7 µM
[22]
  TGI: 15.8 µM
[23]
  TGI: 41.6 µM
[24]
  TGI: 35.4 µM
[25]
  TGI: 37.3 µM
[26]
  TGI: > 100 µM
[27]
  TGI: 34.6 µM
[28]
  TGI: 11.1 µM
[29]
  TGI: 39.7 µM
[30]
  TGI: 29.2 µM
[31]
  TGI: > 100 µM
[32]
  TGI: 25.7 µM
[33]
  TGI: 34.8 µM
[34]
  TGI: 24.5 µM
[35]
  TGI: 30.1 µM
[36]
  TGI: 30.4 µM
[37]
  TGI: 25.8 µM
[38]
  TGI: 40.4 µM
[39]
  TGI: 29 µM
[40]
  TGI: 40.3 µM
[41]
  TGI: 29.1 µM
[42]
  TGI: 28.9 µM
[43]
  TGI: 26.4 µM
[44]
  TGI: 40.8 µM
[45]
  TGI: 24.7 µM
[46]
  TGI: 36.5 µM
[47]
  TGI: 17.9 µM
[48]
  TGI: 28.3 µM
[49]
  TGI: 36 µM
[50]
  TGI: 25.8 µM
[51]
  TGI: 32.1 µM
[52]
  TGI: 12.5 µM
[53]
  TGI: 29.5 µM
[54]
  TGI: 25.6 µM

## NC(Cc1ccc(OCc2ccccc2)cn1)C(=O)OCc1ccccc1 (configuration not stated)
[1]
  TGI: > 100 µM
[2]
  TGI: > 100 µM
[4]
  TGI: > 100 µM
[5]
  TGI: > 100 µM
[6]
  TGI: > 100 µM
[7]
  TGI: > 100 µM
[8]
  TGI: > 100 µM
[55]
  TGI: > 100 µM
[9]
  TGI: > 100 µM
[10]
  TGI: > 100 µM
[11]
  TGI: > 100 µM
[12]
  TGI: > 100 µM
[13]
  TGI: > 100 µM
[14]
  TGI: > 100 µM
[15]
  TGI: > 100 µM
[16]
  TGI: > 100 µM
[17]
  TGI: > 100 µM
[18]
  TGI: > 100 µM
[19]
  TGI: > 100 µM
[20]
  TGI: > 100 µM
[21]
  TGI: > 100 µM
[22]
  TGI: > 100 µM
[23]
  TGI: > 100 µM
[24]
  TGI: > 100 µM
[26]
  TGI: > 100 µM
[27]
  TGI: > 100 µM
[28]
  TGI: > 100 µM
[29]
  TGI: > 100 µM
[30]
  TGI: > 100 µM
[31]
  TGI: > 100 µM
[32]
  TGI: > 100 µM
[33]
  TGI: > 100 µM
[34]
  TGI: > 100 µM
[35]
  TGI: > 100 µM
[37]
  TGI: > 100 µM
[38]
  TGI: > 100 µM
[39]
  TGI: > 100 µM
[40]
  TGI: > 100 µM
[42]
  TGI: > 100 µM
[43]
  TGI: > 100 µM
[44]
  TGI: > 100 µM
[45]
  TGI: > 100 µM
[46]
  TGI: > 100 µM
[47]
  TGI: > 100 µM
[48]
  TGI: > 100 µM
[49]
  TGI: > 100 µM
[50]
  TGI: > 100 µM
[52]
  TGI: > 100 µM
[53]
  TGI: > 100 µM
[54]
  TGI: > 100 µM
[56]
  TGI: > 100 µM

## Cc1cccc(N2C(=O)C3c4[nH]c5ccccc5c4C4CCC(C(C)(C)C)CC4C3C2=O)c1C (configuration not stated)
[1]
  TGI: > 100 µM
[2]
  TGI: > 100 µM
[4]
  TGI: > 100 µM
[5]
  TGI: > 100 µM
[6]
  TGI: > 100 µM
[7]
  TGI: > 100 µM
[8]
  TGI: > 100 µM
[9]
  TGI: > 100 µM
[10]
  TGI: > 100 µM
[11]
  TGI: > 100 µM
[13]
  TGI: > 100 µM
[14]
  TGI: > 100 µM
[15]
  TGI: > 100 µM
[16]
  TGI: 83.4 µM
[17]
  TGI: > 100 µM
[18]
  TGI: > 100 µM
[19]
  TGI: 60.4 µM
[20]
  TGI: > 100 µM
[21]
  TGI: > 100 µM
[57]
  TGI: > 100 µM
[22]
  TGI: > 100 µM
[24]
  TGI: > 100 µM
[25]
  TGI: > 100 µM
[26]
  TGI: > 100 µM
[27]
  TGI: > 100 µM
[28]
  TGI: > 100 µM
[29]
  TGI: > 100 µM
[30]
  TGI: 42.3 µM
[31]
  TGI: > 100 µM
[32]
  TGI: > 100 µM
[33]
  TGI: > 100 µM
[34]
  TGI: > 100 µM
[35]
  TGI: > 100 µM
[36]
  TGI: > 100 µM
[37]
  TGI: > 100 µM
[38]
  TGI: > 100 µM
[39]
  TGI: > 100 µM
[40]
  TGI: > 100 µM
[41]
  TGI: > 100 µM
[42]
  TGI: > 100 µM
[43]
  TGI: > 100 µM
[44]
  TGI: > 100 µM
[45]
  TGI: > 100 µM
[46]
  TGI: > 100 µM
[47]
  TGI: > 100 µM
[48]
  TGI: > 100 µM
[49]
  TGI: > 100 µM
[50]
  TGI: > 100 µM
[51]
  TGI: > 100 µM
[52]
  TGI: > 100 µM
[53]
  TGI: > 100 µM
[54]
  TGI: > 100 µM
